Reference: PMC7160333, “Physiological Role of Glutamate Dehydrogenase in Cancer Cells” (Frontiers in Oncology, 2020)
Like-named read-outs stand apart in the source and are kept apart here.

How the values were obtained:
[1] = target: HepM GDH1 (Rattus norvegicus, UniProt P10860); test: GDH reverse (aminating) reaction activity in hepatoma mitochondria (HepM); type: biochemical; conditions: for Vmax at given ADP concentration: HepM GDH, pH 7.50, 37°C, 280 μg protein, MWC fit, representative experiment; for EC50: Hill equation; for Ki: saturating ADP, read-out: Ki GTP
Chain of HepM GDH1 (P10860 54-558): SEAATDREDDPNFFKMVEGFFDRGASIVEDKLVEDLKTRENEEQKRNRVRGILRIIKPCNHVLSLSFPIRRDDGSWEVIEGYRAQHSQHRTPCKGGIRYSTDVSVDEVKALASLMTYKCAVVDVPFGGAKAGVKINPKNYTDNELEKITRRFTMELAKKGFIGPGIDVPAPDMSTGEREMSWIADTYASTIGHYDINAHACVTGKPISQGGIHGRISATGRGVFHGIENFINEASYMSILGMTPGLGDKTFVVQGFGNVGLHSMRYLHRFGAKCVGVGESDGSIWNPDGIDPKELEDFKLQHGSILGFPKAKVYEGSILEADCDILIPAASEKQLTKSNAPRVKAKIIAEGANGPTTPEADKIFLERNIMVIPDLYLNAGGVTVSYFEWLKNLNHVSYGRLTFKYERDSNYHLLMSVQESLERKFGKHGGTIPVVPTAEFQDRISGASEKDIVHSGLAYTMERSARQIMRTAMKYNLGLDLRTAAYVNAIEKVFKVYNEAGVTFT
Method: (§1) Tightly coupled mitochondria were isolated from fed-rat liver (RLM) and AS-30D cells (HepM) as described elsewhere ([89], [90]). […] The resulting mitochondrial fractions were resuspended at 30 to 80 mg protein/mL in SHE buffer with 1 mM PMSF, 1 mM EDTA, 5 mM DTT, and 10% glycerol, and stored at −70°C until use for determination of enzyme activity and Western blotting.

[2] = target: RLM GDH1 (Rattus norvegicus, UniProt P10860); test: GDH reverse (aminating) reaction activity in rat liver mitochondria (RLM); type: biochemical; conditions: for Vmax at given ADP concentration: RLM GDH, pH 7.50, 37°C, 90 μg protein, MWC fit, representative experiment; for EC50: Hill equation; for Ki: saturating ADP, read-out: Ki GTP
Chain of RLM GDH1 (P10860 54-558): as above
Method: as §1

[3] = target: GDH in HepM and RLM (Rattus norvegicus, UniProt P10860); test: GDH reverse reaction kinetics, summary statements for HepM and RLM; type: biochemical; conditions: summary of Table 2
Chain of GDH in HepM and RLM (P10860 54-558): as above
Method: (§2) The decrease in the absorbance at 340 nm was followed for several minutes (~10 min) to allow for full development of the pronounced enzyme hysteretic behavior, although the initial signal decrease (1–3 min) was taken to calculate the GDH rates. The protein concentration ranges used for each mitochondrial type were well within the linearity range of enzyme activity. To calculate the kinetic parameters, the experimental data were fitted by non-linear regression analysis to the Hill or MWC equation, using the Microcal Origin 5.0 software (OriginLab, Northampton, MA, USA).

[4] = tested on: recombinant human GDH isoforms (GDH1 and GDH2), bovine liver GDH, Ox brain GDH, dogfish liver GDH, rat brain GDH, and bovine brain GDH isoforms; design: method as in PMID 4381532, PMID 7588764, PMID 17924438, PMID 23420347, PMID 7190024; conditions: pH range of 7.4–8.7, cited from earlier work
[5] = tested on: mammalian liver and brain GDHs; design: method as in PMID 3701332, PMID 7588764, PMID 7190024, PMID 4052048, PMID 1366782; conditions: cited from earlier work
[6] = tested on: tumors; design: method as in PMID 10071293; conditions: clinical trials; cited from earlier work
[7] = tested on: prostate cancer, renal cancer, and leukemia cell lines; design: method as in PMID 1372534, PMID 12820434; conditions: cited from earlier work
[8] = target: GDH1 (Rattus norvegicus, UniProt P10860); test: Effect of Mg2+ and spermidine on GDH1 activity; type: biochemical
Chain of GDH1 (P10860 54-558): as above
Method: as §2

SMILES: Nc1ncnc2c1ncn2[C@@H]1O[C@H](COP(=O)(O)OP(=O)(O)O)[C@@H](O)[C@H]1O [ADP]
- Vmax at given ADP concentration ([1]; 0.13 mM ADP): 0.037 ± 0.009 ΔAbs/min
- Vmax at given ADP concentration ([1]; 0.5 mM ADP): 0.153 ± 0.008 ΔAbs/min
- Vmax at given ADP concentration ([1]; 1.5 mM ADP): 0.193 ± 0.011 ΔAbs/min
- Vmax at given ADP concentration ([1]; […] ADP): 0.099 ± 0.010 ΔAbs/min
- nH (Hill coefficient) for ADP ([1]; HepM, pH 7.2, Hill equation): 2.77 ± 0.7
- Ka ADP (activation constant) ([1]; HepM, pH 7.2, MWC equation): 0.42 ± 0.26 (3) mM
- EC50 ([1]; HepM, pH 7.2, allosteric activator, read-out: K0.5 ADP): 564 ± 167 µM
- nH (Hill coefficient) for ADP ([1]; HepM, pH 7.5, Hill equation): 2.6 ± 0.4
- Ka ADP (activation constant) ([1]; HepM, pH 7.5, MWC equation): 0.44 ± 0.37 (3) mM
- EC50 ([1]; HepM, pH 7.5, allosteric activator, read-out: K0.5 ADP): 281 ± 134 µM
- Vmax at given ADP concentration ([2]; 0.25 mM ADP): 0.131 ± 0.113 ΔAbs/min
- Vmax at given ADP concentration ([2]; 0.75 mM ADP): 0.295 ± 0.022 ΔAbs/min
- Vmax at given ADP concentration ([2]; 2.1 mM ADP): 0.367 ± 0.024 ΔAbs/min
- nH (Hill coefficient) for ADP ([2]; RLM, pH 7.2, Hill equation): 2.4 ± 0.3
- Ka ADP (activation constant) ([2]; RLM, pH 7.2, MWC equation): 0.51 ± 0.14 (5) mM
- EC50 ([2]; RLM, pH 7.2, allosteric activator, read-out: K0.5 ADP): 567 ± 125 µM
- nH (Hill coefficient) for ADP ([2]; RLM, pH 7.5, Hill equation): 2.34
- Ka ADP (activation constant) ([2]; RLM, pH 7.5, MWC equation): 0.11 ± 0.14 (4) mM
- EC50 ([2]; RLM, pH 7.5, allosteric activator, read-out: K0.5 ADP): 285 µM
- Hill coefficient (nH) when varying ADP [3]: 2.3–2.8

SMILES: O=C(O)CCC(=O)C(=O)O [2-OG, 2-oxoglutarate]
- Km ([1]; HepM, pH 7.2, Michaelis–Menten, read-out: Km 2-OG): 442 ± 160 µM
- Km ([1]; HepM, pH 7.5, Michaelis–Menten, read-out: Km 2-OG): 733 ± 325 µM
- Km ([2]; RLM, pH 7.2, Michaelis–Menten, read-out: Km 2-OG): 371 ± 232 µM
- Km ([2]; RLM, pH 7.5, Michaelis–Menten, read-out: Km 2-OG): 396 ± 75 µM
- Km ([4]; read-out: Km 2OG): 470 to 4500 µM

SMILES: Nc1nc2c(ncn2[C@@H]2O[C@H](COP(=O)(O)OP(=O)(O)OP(=O)(O)O)[C@@H](O)[C@H]2O)c(=O)[nH]1 [GTP]
- Ki ([1]; HepM, pH 7.2, MWC equation): 28 ± 27 µM
- IC50 ([1]; HepM, pH 7.2, reverse reaction): 114 ± 29 µM
- Ki ([1]; HepM, pH 7.5, MWC equation): 64 ± 59 µM
- Ki ([2]; RLM, pH 7.2, MWC equation): 60 ± 10 µM
- IC50 ([2]; RLM, pH 7.2, reverse reaction): 139 ± 21 µM
- Ki ([2]; RLM, pH 7.5, MWC equation): 31.7 ± 7 µM
- IC50 ([2]; RLM, pH 7.5, reverse reaction): 244 µM

SMILES: CC(C)C[C@H](N)C(=O)O [Leu, L-leucine]
- nH (Hill coefficient) for Leu ([1]; HepM, pH 7.2, Hill equation): 2.8
- EC50 ([1]; HepM, pH 7.2, activator, read-out: K0.5 Leu): 2600 µM
- nH (Hill coefficient) for Leu ([2]; RLM, pH 7.2, Hill equation): 2.75
- EC50 ([2]; RLM, pH 7.2, activator, read-out: K0.5 Leu): 3900 µM

SMILES: NC(=O)C1=CN([C@@H]2O[C@H](COP(=O)(O)OP(=O)(O)OC[C@H]3O[C@@H](n4cnc5c(N)ncnc54)[C@H](O)[C@@H]3O)[C@@H](O)[C@H]2O)C=CC1 [NADH]
- Km [5]: 28 to 120 µM

SMILES: O=C(O)Cc1ccccc1 [phenylacetate]
- Antitumor activity [6]: negligible antitumor activity
- Growth of cell lines [7]: arrests growth

SMILES: NC(=O)C1=CN([C@@H]2O[C@H](COP(=O)(O)OP(=O)(O)OC[C@H]3O[C@@H](n4cnc5c(N)ncnc54)[C@H](OP(=O)(O)O)[C@@H]3O)[C@@H](O)[C@H]2O)C=CC1 [NADPH]
- Km ([1]; read-out: Km NADPH, HepM, pH 7.2, Michaelis–Menten): 46 ± 14 µM
- Km ([1]; read-out: Km NADPH, HepM, pH 7.5, Michaelis–Menten): 109 ± 4 µM
- Km ([2]; read-out: Km NADPH, RLM, pH 7.5, Michaelis–Menten): 133 ± 28 µM
- Km ([4]; read-out: Km NADPH): 20 to 120 µM
- Km [5]: 22 to 120 µM

SMILES: NC(=O)c1ccc[n+]([C@@H]2O[C@H](COP(=O)([O-])OP(=O)(O)OC[C@H]3O[C@@H](n4cnc5c(N)ncnc54)[C@H](O)[C@@H]3O)[C@@H](O)[C@H]2O)c1 [NAD^+]
- Km [5]: 170 to 830 µM

SMILES: NCCCCNCCCN [Spermidine]
- Effect on GDH activity ([8]; spermidine 0–5 mM, data not shown): innocuous
- inhibition at 20000 µM ([8]; spermidine 20 mM, data not shown, read-out: Inhibition of GDH activity): 20%

SMILES: O=C(O)CCCc1ccccc1 [Phenylbutyrate, phenylbutyrate]
- Growth of cell lines [7]: arrests growth

SMILES: NC(=O)c1ccc[n+]([C@@H]2O[C@H](COP(=O)([O-])OP(=O)(O)OC[C@H]3O[C@@H](n4cnc5c(N)ncnc54)[C@H](OP(=O)(O)O)[C@@H]3O)[C@@H](O)[C@H]2O)c1 [NADP^+]
- Km [5]: 160 to 1220 µM

SMILES: [Cl-].[Cl-].[Mg+2] [Mg^2+, MgCl2]
- Effect on GDH1 activity ([8]; 0- to 0.4-mM added MgCl2): not affected
- Inhibition of GDH1 activity ([8]; 1 mM Mg^2+): < 10%
- Inhibition of GDH1 activity ([8]; 2 mM Mg^2+): ~ 20%
